Reference: PubChem BioAssay (NCI)
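Five compound concentrations were applied to cells in 96-well plates for 48 hours; endpoints were derived by simple linear interpolation of the resulting dose-response curve. GI50 = concentration required for 50% inhibition of growth. At the TGI there is no net growth.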

Columns and labels:
Experiment in all cases: growth of human tumour cells (NCI), 48 h
SK-MEL-28 melanoma = system: SK-MEL-28 melanoma
PC-3 prostate = system: PC-3 prostate
K-562 leukemia = system: K-562 leukemia
MOLT-4 leukemia = system: MOLT-4 leukemia
HOP-92 NSCLC = system: HOP-92 NSCLC
DU-145 prostate = system: DU-145 prostate
SNB-19 CNS = system: SNB-19 CNS
NCI-H522 lung = system: NCI-H522 lung
SK-MEL-2 melanoma = system: SK-MEL-2 melanoma
OVCAR-3 ovarian = system: OVCAR-3 ovarian
A549 NSCLC = system: A549 NSCLC
COLO 205 colon = system: COLO 205 colon
UO-31 renal = system: UO-31 renal
U251 CNS = system: U251 CNS
NCI-H460 lung = system: NCI-H460 lung
SF-539 CNS = system: SF-539 CNS
SN12C renal = system: SN12C renal
OVCAR-8 ovarian = system: OVCAR-8 ovarian
HS 578T breast = system: HS 578T breast
786-0 renal = system: 786-0 renal
SF-295 CNS = system: SF-295 CNS
HT29 colon = system: HT29 colon
BT-549 breast = system: BT-549 breast
RXF 393 renal = system: RXF 393 renal
NCI/ADR-RES ovarian = system: NCI/ADR-RES ovarian
MDA-MB-231 breast = system: MDA-MB-231 breast
LOX IMVI melanoma = system: LOX IMVI melanoma
MDA-MB-435 = system: MDA-MB-435
KM12 colon = system: KM12 colon
CCRF-CEM leukemia = system: CCRF-CEM leukemia
OVCAR-5 ovarian = system: OVCAR-5 ovarian
SR leukemia = system: SR leukemia
MCF7 breast = system: MCF7 breast
SW-620 colon = system: SW-620 colon
T-47D breast = system: T-47D breast
IGROV1 ovarian = system: IGROV1 ovarian
EKVX NSCLC = system: EKVX NSCLC
UACC-62 melanoma = system: UACC-62 melanoma
HCT-15 colon = system: HCT-15 colon
A498 renal = system: A498 renal
SF-268 CNS = system: SF-268 CNS
ACHN renal = system: ACHN renal
NCI-H226 lung = system: NCI-H226 lung
SK-MEL-5 melanoma = system: SK-MEL-5 melanoma
UACC-257 melanoma = system: UACC-257 melanoma
MALME-3M melanoma = system: MALME-3M melanoma
OVCAR-4 ovarian = system: OVCAR-4 ovarian
HCC-2998 colon = system: HCC-2998 colon
M14 melanoma = system: M14 melanoma
CAKI-1 renal = system: CAKI-1 renal
RPMI-8226 leukemia = system: RPMI-8226 leukemia
NCI-H23 lung = system: NCI-H23 lung
SK-OV-3 ovarian = system: SK-OV-3 ovarian
HOP-62 NSCLC = system: HOP-62 NSCLC
MDA-MB-468 breast = system: MDA-MB-468 breast
HL-60(TB) leukemia = system: HL-60(TB) leukemia
HCT-116 colon = system: HCT-116 colon
SNB-75 CNS = system: SNB-75 CNS
TK-10 renal = system: TK-10 renal

CCc1ccc(SC2c3cc(OC)ccc3Oc3nc(N)c(C#N)c(N)c32)cc1 (stereo not drawn)
GI50 (SK-MEL-28 melanoma): 2.99 µM | TGI (SK-MEL-28 melanoma): 12.5 µM | GI50 (PC-3 prostate): 1.52 µM | TGI (PC-3 prostate): 18.6 µM | GI50 (K-562 leukemia): 3.51 µM | TGI (K-562 leukemia): 24.4 µM | GI50 (MOLT-4 leukemia): 1.28 µM | TGI (MOLT-4 leukemia): 9.69 µM | GI50 (HOP-92 NSCLC): 3.66 µM | TGI (HOP-92 NSCLC): 35.4 µM | GI50 (DU-145 prostate): 11.7 µM | TGI (DU-145 prostate): 24.6 µM | GI50 (SNB-19 CNS): 3.17 µM | TGI (SNB-19 CNS): 16.6 µM | GI50 (NCI-H522 lung): 1.69 µM | TGI (NCI-H522 lung): 3.49 µM | GI50 (SK-MEL-2 melanoma): 3.42 µM | TGI (SK-MEL-2 melanoma): 13 µM | GI50 (OVCAR-3 ovarian): 2.9 µM | TGI (OVCAR-3 ovarian): 12.6 µM | GI50 (A549 NSCLC): 3.99 µM | TGI (A549 NSCLC): 49.4 µM | GI50 (COLO 205 colon): 2.35 µM | TGI (COLO 205 colon): 6.19 µM | GI50 (UO-31 renal): 0.575 µM | TGI (UO-31 renal): 4.17 µM | GI50 (U251 CNS): 1.82 µM | TGI (U251 CNS): 15.3 µM | GI50 (NCI-H460 lung): 2.84 µM | TGI (NCI-H460 lung): 15.3 µM | GI50 (SF-539 CNS): 1.59 µM | TGI (SF-539 CNS): 3.27 µM | GI50 (SN12C renal): 1.76 µM | TGI (SN12C renal): 15.8 µM | GI50 (OVCAR-8 ovarian): 5.85 µM | TGI (OVCAR-8 ovarian): 37.4 µM | GI50 (HS 578T breast): 2.35 µM | TGI (HS 578T breast): 9.18 µM | GI50 (786-0 renal): 3.11 µM | TGI (786-0 renal): 24.9 µM | GI50 (SF-295 CNS): 3.28 µM | TGI (SF-295 CNS): 15.7 µM | GI50 (HT29 colon): 6.15 µM | TGI (HT29 colon): > 100 µM | GI50 (BT-549 breast): 0.742 µM | TGI (BT-549 breast): 3.25 µM | GI50 (RXF 393 renal): 1.76 µM | TGI (RXF 393 renal): 5.09 µM | GI50 (NCI/ADR-RES ovarian): 3.24 µM | TGI (NCI/ADR-RES ovarian): 26.4 µM | GI50 (MDA-MB-231 breast): 3.34 µM | TGI (MDA-MB-231 breast): 17 µM | GI50 (LOX IMVI melanoma): 0.23 µM | TGI (LOX IMVI melanoma): 0.658 µM | GI50 (MDA-MB-435): 2.05 µM | TGI (MDA-MB-435): 11.6 µM | GI50 (KM12 colon): 3.43 µM | TGI (KM12 colon): 16.1 µM | GI50 (CCRF-CEM leukemia): 0.225 µM | TGI (CCRF-CEM leukemia): 4.34 µM | GI50 (OVCAR-5 ovarian): 3.41 µM | TGI (OVCAR-5 ovarian): 14.4 µM | GI50 (SR leukemia): 2.61 µM | TGI (SR leukemia): 22.8 µM | GI50 (MCF7 breast): 3.04 µM | TGI (MCF7 breast): 13.6 µM | GI50 (SW-620 colon): 3.15 µM | TGI (SW-620 colon): 13.1 µM | GI50 (T-47D breast): 3.36 µM | TGI (T-47D breast): 32.9 µM | GI50 (IGROV1 ovarian): 0.349 µM | TGI (IGROV1 ovarian): 1.51 µM | GI50 (EKVX NSCLC): 3.74 µM | TGI (EKVX NSCLC): 17.3 µM | GI50 (UACC-62 melanoma): 2.73 µM | TGI (UACC-62 melanoma): 11.5 µM | GI50 (HCT-15 colon): 2.96 µM | TGI (HCT-15 colon): 19.3 µM | GI50 (A498 renal): 3.32 µM | TGI (A498 renal): 10.8 µM | GI50 (SF-268 CNS): 1.99 µM | TGI (SF-268 CNS): 20.5 µM | GI50 (ACHN renal): 5.6 µM | TGI (ACHN renal): 25.3 µM | GI50 (NCI-H226 lung): 2.26 µM | TGI (NCI-H226 lung): 23.3 µM | GI50 (SK-MEL-5 melanoma): 3.23 µM | TGI (SK-MEL-5 melanoma): 13.7 µM | GI50 (UACC-257 melanoma): 9.06 µM | TGI (UACC-257 melanoma): 29.6 µM | GI50 (MALME-3M melanoma): 10.6 µM | TGI (MALME-3M melanoma): 22.7 µM | GI50 (OVCAR-4 ovarian): 4.23 µM | TGI (OVCAR-4 ovarian): 41.6 µM | GI50 (HCC-2998 colon): 4.9 µM | TGI (HCC-2998 colon): 17.1 µM | GI50 (M14 melanoma): 2.67 µM | TGI (M14 melanoma): 12.4 µM | GI50 (CAKI-1 renal): 1.89 µM | TGI (CAKI-1 renal): 15 µM | GI50 (RPMI-8226 leukemia): 3.02 µM | TGI (RPMI-8226 leukemia): 14.6 µM | GI50 (NCI-H23 lung): 2.9 µM | TGI (NCI-H23 lung): 14 µM | GI50 (SK-OV-3 ovarian): 6.62 µM | TGI (SK-OV-3 ovarian): 82.4 µM | GI50 (HOP-62 NSCLC): 3.77 µM | TGI (HOP-62 NSCLC): > 100 µM | GI50 (MDA-MB-468 breast): 2.1 µM | TGI (MDA-MB-468 breast): 6.56 µM | GI50 (HL-60(TB) leukemia): 2.09 µM | TGI (HL-60(TB) leukemia): 6.11 µM | GI50 (HCT-116 colon): 3.05 µM | TGI (HCT-116 colon): 13.9 µM | GI50 (SNB-75 CNS): 0.566 µM | TGI (SNB-75 CNS): 4.02 µM | GI50 (TK-10 renal): 9.67 µM | TGI (TK-10 renal): 32.2 µM
